Values of other authors in patent publication US8298992B2, “Low odor, low volatility solvent for agricultural chemicals” (Huntsman Petrochemical LLC, priority 2006, dated 2012).

Settings: solubility data available for a dimethyamide (comparison)

Solubility in Water (wt %): 3.8% wt %
Compound: CCCCCCCCCC(=O)N(C)C [N,N-dimethyldecanamide]
